Assay results: US12692232B2, “Indole carboxamide compound, preparation therefor and use thereof” (NANJING RUISHUNING MEDICAL TECHNOLOGY CO., LTD., priority 2021, dated 2026)

Target: T1, TRPC5 protein (Homo sapiens, UniProt Q9UL62)
T1 sequence (Q9UL62 1-973): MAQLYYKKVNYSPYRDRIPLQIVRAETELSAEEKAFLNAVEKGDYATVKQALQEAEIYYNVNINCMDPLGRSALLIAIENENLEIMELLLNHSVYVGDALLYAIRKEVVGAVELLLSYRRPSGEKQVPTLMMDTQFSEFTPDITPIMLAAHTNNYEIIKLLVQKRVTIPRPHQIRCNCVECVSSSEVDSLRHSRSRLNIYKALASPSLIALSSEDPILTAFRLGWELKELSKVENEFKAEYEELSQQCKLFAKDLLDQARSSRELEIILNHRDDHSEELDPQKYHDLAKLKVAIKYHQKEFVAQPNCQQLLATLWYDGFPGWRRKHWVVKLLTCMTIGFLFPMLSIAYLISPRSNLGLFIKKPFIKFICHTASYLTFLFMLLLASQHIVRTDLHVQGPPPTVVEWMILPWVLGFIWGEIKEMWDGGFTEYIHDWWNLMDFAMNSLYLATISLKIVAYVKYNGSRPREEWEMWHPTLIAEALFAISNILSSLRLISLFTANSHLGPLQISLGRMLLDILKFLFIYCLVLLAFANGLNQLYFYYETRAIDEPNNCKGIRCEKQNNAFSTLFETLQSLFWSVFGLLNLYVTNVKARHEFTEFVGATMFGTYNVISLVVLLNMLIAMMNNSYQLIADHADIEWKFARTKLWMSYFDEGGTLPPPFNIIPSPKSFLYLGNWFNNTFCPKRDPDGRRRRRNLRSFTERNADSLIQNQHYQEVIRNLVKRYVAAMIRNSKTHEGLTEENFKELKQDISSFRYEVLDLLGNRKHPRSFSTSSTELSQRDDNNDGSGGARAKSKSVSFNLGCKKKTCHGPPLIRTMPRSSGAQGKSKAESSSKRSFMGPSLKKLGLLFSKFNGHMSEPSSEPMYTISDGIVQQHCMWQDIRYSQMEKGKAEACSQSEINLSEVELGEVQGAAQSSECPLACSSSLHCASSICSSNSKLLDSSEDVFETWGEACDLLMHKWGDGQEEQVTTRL
Experiment: MST binding to TRPC5 protein
Protocol: Preparation and labelling of protein solution: TRPC6 protein dry powder (Alomone Labs, Israel) was prepared into a protein mother solution at a concentration of 10 μM using PBS-Buffer, and 35 μL of the protein stock solution was taken to the Buffer exchange A column, and centrifuged to obtain the Tris-removed protein. 34 μL Labelling Buffer was added to the Tris-removed protein according to the instructions of the Protein Fluorescent Labelling Kit (model L001). After mixing well, 3 μL of NT-647-NHS fluorescent dye was added and thus obtained mixture was incubated for 20 minutes. The protein-dye mixture was transferred to the purification B column, 300 μL of PBS-Buffer was added, and the target protein, i.e. fluorescent labelled protein TRPC6, was collected by centrifugation (with a final concentration of about 2 μM). 180 μL of target protein was mixed with 1620 μL of PBS-Buffer, and then 9 μl of Tween-20 were added thereto. […]
The binding ability of the compounds of the present invention (as exemplified by the compounds 1-1 and 2-1 obtained in Examples 1 and 3) for other TRPC proteins (e.g., TRPC1, TRPC3, TRPC4, TRPC5, and TRPC7) was determined using the microscale thermophoresis (MST) method. […]
The affinity of the compounds of the present invention with TRPC1, TRPC3, TRPC4, TRPC5 and TRPC7 proteins, respectively, was determined by the same method as in Example 5.

Compound | Kd for binding to TRPCS protein
CC(=O)OCCCNC(=O)c1c(C=O)c2ccccc2n1C [compound 1-1, propyl 3-[(3-formyl-1-methyl-1H-indole-2-carbonyl)amino]acetate] | cannot be measured
Cn1c(C(=O)NCCCOC(=O)c2ccccc2)c(C=O)c2ccccc21 [compound 2-1] | cannot be measured
